# Test results taken from ChEMBL document CHEMBL1126424, “Preparation of the enantiomers of the novel CA-sensitizer EMD 53 998” (Bioorg Med Chem Lett, 1992).
# Columns and labels:
# Phosphodiesterase 3 = Phosphodiesterase 3 (Homo sapiens, UniProt Q14432+Q13370); assay: Inhibition of guinea pig heart Phosphodiesterase 3; assay type: protein assay, Cavia porcellus; conditions: target entry is the homologue from another species
# Cavia porcellus = organism: Cavia porcellus; assay: Increasing force in skinned fibers at constant buffered Ca-concentration; assay type: functional
IC50 (Phosphodiesterase 3),EC50 (Cavia porcellus),Compound
60 nM,4800 nM,COc1ccc(C(=O)N2CCCc3cc(C4=NNC(=O)SC4C)ccc32)cc1OC (stereo in doubt; form 1)
50 nM,> 100000 nM,COc1ccc(C(=O)N2CCCc3cc(C4=NNC(=O)SC4C)ccc32)cc1OC (stereo in doubt; form 2)
1940 nM,1700 nM,COc1ccc(C(=O)N2CCCc3cc(C4=NNC(=O)SC4C)ccc32)cc1OC (stereo in doubt; form 3)
